Reference: patent US12391676B2 (H. LEE MOFFITT CANCER CENTER AND RESEARCH INSTITUTE, INC., priority 2018, dated 2025)
Like-named read-outs stand apart in the source and are kept apart here.

Assays:
BRD4 = BRD4 (Homo sapiens (Human), UniProt O60885); test: BRD4 DSF thermal shift (ΔTm); format: binding; conditions: for BRD4 DSF (ΔTm): Table 2; for DSF ΔTm: Table 1
UKE1 cells = test: Growth inhibition GI50, UKE1 cells; format: cell-based
MM1.S cells = test: Antiproliferative activity, MM1.S cells; format: cell-based; conditions: Homo sapiens; for GI50: Table 2, read-out: GI50 (MM1S)
Method: Cellular activity of promising compounds is assessed using MM.1S and MV4-11 AML cells using c-Myc levels as biomarker (6-12 hr treatment) and antiproliferative activity (48-72 hr treatment) as described (Ciceri et al., Dual kinase-bromodomain inhibitors for rationally designed polypharmacology. Nat Chem Biol 2014).

JAK2 = JAK2 (Homo sapiens (Human), UniProt O60674); test: JAK2 IC50; format: biochemical; conditions: Table 2
JAK2, sequence (O60674 whole entry): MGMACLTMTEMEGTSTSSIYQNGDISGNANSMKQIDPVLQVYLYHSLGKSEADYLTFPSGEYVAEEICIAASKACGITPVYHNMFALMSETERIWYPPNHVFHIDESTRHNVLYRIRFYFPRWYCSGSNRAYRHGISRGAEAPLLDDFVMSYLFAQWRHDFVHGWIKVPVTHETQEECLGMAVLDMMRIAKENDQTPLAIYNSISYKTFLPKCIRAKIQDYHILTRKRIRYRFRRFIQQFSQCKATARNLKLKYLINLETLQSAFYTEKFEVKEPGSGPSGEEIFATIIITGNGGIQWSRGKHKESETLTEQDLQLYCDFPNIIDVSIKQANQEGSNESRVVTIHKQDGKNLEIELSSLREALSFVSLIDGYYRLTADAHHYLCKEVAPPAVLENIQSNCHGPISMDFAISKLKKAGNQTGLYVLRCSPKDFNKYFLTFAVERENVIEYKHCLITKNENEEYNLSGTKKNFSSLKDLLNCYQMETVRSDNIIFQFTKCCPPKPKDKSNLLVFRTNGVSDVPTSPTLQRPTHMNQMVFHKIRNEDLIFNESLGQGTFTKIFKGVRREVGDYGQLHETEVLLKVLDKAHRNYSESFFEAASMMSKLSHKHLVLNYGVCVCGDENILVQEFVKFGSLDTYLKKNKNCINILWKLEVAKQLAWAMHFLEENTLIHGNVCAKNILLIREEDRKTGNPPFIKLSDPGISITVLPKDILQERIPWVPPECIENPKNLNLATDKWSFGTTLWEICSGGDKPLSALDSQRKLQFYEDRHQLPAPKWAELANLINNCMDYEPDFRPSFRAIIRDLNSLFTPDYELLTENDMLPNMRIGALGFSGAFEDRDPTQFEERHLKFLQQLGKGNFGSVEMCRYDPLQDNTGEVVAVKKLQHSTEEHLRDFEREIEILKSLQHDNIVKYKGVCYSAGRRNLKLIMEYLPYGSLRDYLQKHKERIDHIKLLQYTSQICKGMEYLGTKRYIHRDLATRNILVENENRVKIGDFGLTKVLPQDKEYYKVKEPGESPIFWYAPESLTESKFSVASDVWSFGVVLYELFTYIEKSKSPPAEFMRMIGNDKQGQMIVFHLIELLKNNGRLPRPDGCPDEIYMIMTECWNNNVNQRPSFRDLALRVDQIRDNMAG

[1] = UKE1, Table 2, read-out: GI50 (UKE1)
[2] = UKE1, Table 1 comments, read-out: GI50 (UKE1 cells)

Cc1cnc(Nc2ccc(N3CCN(C)CC3)c(F)c2)cc1Nc1cccc(S(=O)(=O)NC(C)(C)C)c1 [MA9-024, N-(Tert-butyl)-3-((2-((3-fluoro-4-(4-methylpiperazin-1-yl)phenyl)amino)-5-methylpyridin-4-yl)amino)benzenesulfonamide]
BRD4 DSF (ΔTm) (BRD4): 4.1 °C
GI50 (UKE1 cells; [1]): > 24000 nM
GI50 (MM1.S cells): 4790 nM

Cc1cnc(Nc2ccc(OCCN3CCCC3)cc2)nc1Nc1ccc2c(c1)N(S(=O)(=O)C(C)(C)C)CC2 [MA11-006, N4-(1-(tert-butylsulfonyl)indolin-6-yl)-5-methyl-N2-(4-(2-(pyrrolidin-1-yl)ethoxy)phenyl)pyrimidine-2,4-diamine]
BRD4 DSF (ΔTm) (BRD4): 11.0 °C
GI50 (UKE1 cells; [1]): 502 nM
GI50 (MM1.S cells): 499 nM

Cc1cnc(Nc2ccc(OCCN3CCCC3)c(F)c2)nc1Nc1ccc2c(c1)N(S(=O)(=O)C(C)(C)C)CC2 [MA11-007, N4-(1-(tert-butylsulfonyl)indolin-6-yl)-N2-(3-fluoro-4-(2-(pyrrolidin-1-yl)ethoxy)phenyl)-5-methylpyrimidine-2,4-diamine]
BRD4 DSF (ΔTm) (BRD4): 13.7 °C
GI50 (UKE1 cells; [1]): 260 nM
GI50 (MM1.S cells): 135 nM

Cc1cnc(Nc2cc(F)c(C3CCN(C)CC3)c(F)c2)nc1Nc1ccc2ccn(S(=O)(=O)C(C)(C)C)c2n1 [MA11-012, N4-(1-(tert-butylsulfonyl)-1H-pyrrolo[2,3-b]pyridin-6-yl)-N2-(3,5-difluoro-4-(1-methylpiperidin-4-yl)phenyl)-5-methylpyrimidine-2,4-diamine]
BRD4 DSF (ΔTm) (BRD4): 3.9 °C
GI50 (UKE1 cells; [1]): 580 nM

Cc1cnc(Nc2ccc(C3CCN(C)CC3)c(F)c2)nc1Nc1cnc(Cl)c(NS(=O)(=O)C(C)(C)C)c1 [MA11-016, N-(2-chloro-5-((2-((3-fluoro-4-(1-methylpiperidin-4-yl)phenyl)amino)-5-methylpyrimidin-4-yl)amino)pyridin-3-yl)-2-methylpropane-2-sulfonamide]
BRD4 DSF (ΔTm) (BRD4): 14.8 °C
GI50 (UKE1 cells; [1]): 110 nM

Cc1cnc(Nc2cc(F)c(C3CCN(C)CC3)c(F)c2)nc1Nc1cnc(Cl)c(NS(=O)(=O)C(C)(C)C)c1 [MA11-017, N-(2-chloro-5-((2-((3,5-difluoro-4-(1-methylpiperidin-4-yl)phenyl)amino)-5-methylpyrimidin-4-yl)amino)pyridin-3-yl)-2-methylpropane-2-sulfonamide]
BRD4 DSF (ΔTm) (BRD4): 14.3 °C
GI50 (UKE1 cells; [1]): 102 nM

Cc1cnc(Nc2ccc(C3CCN(C)CC3)c(F)c2)nc1Nc1cccc(NS(=O)(=O)C(C)(C)C)n1 [MA11-032, N-(6-((2-((3-fluoro-4-(1-methylpiperidin-4-yl)phenyl)amino)-5-methylpyrimidin-4-yl)amino)pyridin-2-yl)-2-methylpropane-2-sulfonamide]
GI50 (UKE1 cells; [1]): 385 nM

Cc1cnc(Nc2cc(F)c(C3CCN(C)CC3)c(F)c2)nc1Nc1cccc(NS(=O)(=O)C(C)(C)C)n1 [MA11-035, N-(6-((2-((3,5-difluoro-4-(1-methylpiperidin-4-yl)phenyl)amino)-5-methylpyrimidin-4-yl)amino)pyridin-2-yl)-2-methylpropane-2-sulfonamide]
BRD4 DSF (ΔTm) (BRD4): 5.1 °C
GI50 (UKE1 cells; [1]): 761 nM

Cc1cnc(Nc2cc(F)c(C3CCN(C)CC3)cn2)nc1Nc1cccc(NS(=O)(=O)C(C)(C)C)n1 [MA11-038, N-(6-((2-((4-fluoro-5-(1-methylpiperidin-4-yl)pyridin-2-yl)amino)-5-methylpyrimidin-4-yl)amino)pyridin-2-yl)-2-methylpropane-2-sulfonamide]
GI50 (UKE1 cells; [1]): 5600 nM

Cc1cnc(Nc2cc(F)c(C3CCN(C)CC3)cn2)nc1Nc1ccc(Cl)c(NS(=O)(=O)C(C)(C)C)c1 [PN1-064, N-(2-Chloro-5-((2-((4-fluoro-5-(1-methylpiperidin-4-yl)pyridin-2-yl)amino)-5-methylpyrimidin-4-yl)amino)phenyl)-2-methylpropane-2-sulfonamide]
BRD4 DSF (ΔTm) (BRD4): 13.6 °C
GI50 (UKE1 cells; [1]): 54 nM
GI50 (MM1.S cells): 43 nM

Cc1cnc(Nc2cc(F)c(C3CCN(C)CC3)cn2)nc1Nc1ccc(F)c(NS(=O)(=O)C(C)(C)C)c1 [PN2-089, N-(2-Fluoro-5-((2-((4-fluoro-5-(1-methylpiperidin-4-yl)pyridin-2-yl)amino)-5-methylpyrimidin-4-yl)amino)phenyl)-2-methylpropane-2-sulfonamide]
BRD4 DSF (ΔTm) (BRD4): 13.4 °C
GI50 (UKE1 cells; [1]): 134 nM
GI50 (MM1.S cells): 72 nM

Cc1cnc(Nc2cc(F)c(C3CCN(C)CC3)cn2)nc1Nc1ccc2c(c1)N(S(=O)(=O)C(C)(C)C)CC2 [PN2-128, N^4-(1-(tert-Butylsulfonyl)indolin-6-yl)-N^2-(4-fluoro-5-(1-methylpiperidin-4-yl)pyridin-2-yl)-5-methylpyrimidine-2,4-diamine]
BRD4 DSF (ΔTm) (BRD4): 12.8 °C
GI50 (UKE1 cells; [1]): 207 nM
GI50 (MM1.S cells): 186 nM

Cc1cnc(Nc2cc(F)c(C3CCN(C)CC3)c(F)c2)nc1Nc1ccc2c(c1)N(S(=O)(=O)C(C)(C)C)CC2 [PN2-129, N^4-(1-(tert-butylsulfonyl)indolin-6-yl)-N^2-(3,5-difluoro-4-(1-methylpiperidin-4-yl)phenyl)-5-methylpyrimidine-2,4-diamine]
BRD4 DSF (ΔTm) (BRD4): 13.8 °C
GI50 (UKE1 cells; [1]): 222 nM
GI50 (MM1.S cells): 152 nM

Cc1ccc(Nc2nc(Nc3ccc(C4CCN(C)CC4)c(F)c3)ncc2C)cc1NS(=O)(=O)C(C)(C)C [PN2-173, N-(5-((2-((3-Fluoro-4-(1-methylpiperidin-4-yl)phenyl)amino)-5-methylpyrimidin-4-yl)amino)-2-methylphenyl)-2-methylpropane-2-sulfonamide]
BRD4 DSF (ΔTm) (BRD4): 12.3 °C
GI50 (UKE1 cells; [1]): 463 nM

Cc1ccc(Nc2nc(Nc3cc(F)c(C4CCN(C)CC4)c(F)c3)ncc2C)cc1NS(=O)(=O)C(C)(C)C [PN2-174, N-(5-((2-((3,5-Difluoro-4-(1-methylpiperidin-4-yl)phenyl)amino)-5-methylpyrimidin-4-yl)amino)-2-methylphenyl)-2-methylpropane-2-sulfonamide]
BRD4 DSF (ΔTm) (BRD4): 13.3 °C
GI50 (UKE1 cells; [1]): 194 nM

Cc1ccc(Nc2nc(Nc3cc(F)c(C4CCN(C)CC4)cn3)ncc2C)cc1NS(=O)(=O)C(C)(C)C [PN2-175, N-(5-((2-((4-Fluoro-5-(1-methylpiperidin-4-yl)pyridin-2-yl)amino)-5-methylpyrimidin-4-yl)amino)-2-methylphenyl)-2-methylpropane-2-sulfonamide]
BRD4 DSF (ΔTm) (BRD4): 12.6 °C
GI50 (UKE1 cells; [1]): 220 nM

Cc1cnc(Nc2ccc(C3CCN(C)CC3)c(F)c2)nc1Nc1cc(F)cc(NS(=O)(=O)C(C)(C)C)c1 [PN3-052, N-(3-Fluoro-5-((2-((3-fluoro-4-(1-methylpiperidin-4-yl)phenyl)amino)-5-methylpyrimidin-4-yl)amino)phenyl)-2-methylpropane-2-sulfonamide]
GI50 (UKE1 cells; [1]): 270 nM

Cc1cnc(Nc2cc(F)c(C3CCN(C)CC3)c(F)c2)nc1Nc1cc(F)cc(NS(=O)(=O)C(C)(C)C)c1 [PN3-053, N-(3-((2-((3,5-Difluoro-4-(1-methylpiperidin-4-yl)phenyl)amino)-5-methylpyrimidin-4-yl)amino)-5-fluorophenyl)-2-methylpropane-2-sulfonamide]
GI50 (UKE1 cells; [1]): 185 nM

Cc1cnc(Nc2cc(F)c(C3CCN(C)CC3)cn2)nc1Nc1cc(F)cc(NS(=O)(=O)C(C)(C)C)c1 [PN3-054, N-(3-Fluoro-5-((2-((4-fluoro-5-(1-methylpiperidin-4-yl)pyridin-2-yl)amino)-5-methylpyrimidin-4-yl)amino)phenyl)-2-methylpropane-2-sulfonamide]
GI50 (UKE1 cells; [1]): 449 nM

Cc1cnc(Nc2cc(F)c(C3CCN(C)CC3)cn2)nc1Nc1cc(Cl)cc(NS(=O)(=O)C(C)(C)C)c1 [PN3-074, N-(3-Chloro-5-((2-((4-fluoro-5-(1-methylpiperidin-4-yl)pyridin-2-yl)amino)-5-methylpyrimidin-4-yl)amino)phenyl)-2-methylpropane-2-sulfonamide]
GI50 (UKE1 cells; [1]): 937 nM

Cc1cnc(Nc2cc(F)c(C3CCN(C)CC3)c(F)c2)nc1Nc1cc(Cl)cc(NS(=O)(=O)C(C)(C)C)c1 [PN3-075, N-(3-Chloro-5-((2-((3,5-difluoro-4-(1-methylpiperidin-4-yl)phenyl)amino)-5-methylpyrimidin-4-yl)amino)phenyl)-2-methylpropane-2-sulfonamide]
GI50 (UKE1 cells; [1]): 556 nM

Cc1cnc(Nc2ccc(C3CCN(C)CC3)c(F)c2)nc1Nc1cc(Cl)cc(NS(=O)(=O)C(C)(C)C)c1 [PN3-076, N-(3-Chloro-5-((2-((3-fluoro-4-(1-methylpiperidin-4-yl)phenyl)amino)-5-methylpyrimidin-4-yl)amino)phenyl)-2-methylpropane-2-sulfonamide]
GI50 (UKE1 cells; [1]): 1100 nM

Cc1cnc(Nc2ccc(C3CCN(C)CC3)cc2)nc1Nc1cccc(NS(=O)(=O)C(C)(C)C)c1 [SY3-034, 2-Methyl-N-(3-((5-methyl-2-((4-(1-methylpiperidin-4-yl)phenyl)amino)pyrimidin-4-yl)amino)phenyl)propane-2-sulfonamide]
BRD4 DSF (ΔTm) (BRD4): 10.6 °C
IC50 (JAK2): 1.6 nM
GI50 (UKE1 cells; [1]): 220 nM
GI50 (MM1.S cells): 91 nM

Cc1cnc(Nc2ccc(C3CCN(C)CC3)cc2)nc1Nc1cccc(NS(=O)(=O)C(C)(C)C)c1 [drawing 12]
DSF ΔTm (BRD4): 10.6 °C
GI50 (UKE1 cells; [2]): 220 nM
IC50 (MM1.S cells; Table 1 comments): 91 nM

Cc1cnc(Nc2ccc(C3CCN(C)CC3)c(F)c2)nc1Nc1cccc(NS(=O)(=O)C(C)(C)C)c1 [drawing 13]
DSF ΔTm (BRD4): 12.3 °C
GI50 (UKE1 cells; [2]): 110 nM
